Measurements from patent publication US20160137639A1, “TRIAZOLE-ISOXAZOLE COMPOUND AND MEDICAL USE THEREOF” (JAPAN TOBACCO INC., priority 2012, published 2016).
Where two headings read alike, the source gives them in different places.

Columns and labels:
human RORγ = target: T1, human RORγ (Homo sapiens, UniProt P51449); experiment: Luciferase reporter gene assay of inhibitory effect against RORγ transcriptional activity (GAL4-hRORγ plasmid in CHO cells); type: cell-based
T1 construct: human, NM_005060.3 and from Ser253 to Lys518; expressed in transfected cells; host or cells: CHO cells (transient co-transfection with pG5-Luc reporter)
T1 sequence (P51449 253-518): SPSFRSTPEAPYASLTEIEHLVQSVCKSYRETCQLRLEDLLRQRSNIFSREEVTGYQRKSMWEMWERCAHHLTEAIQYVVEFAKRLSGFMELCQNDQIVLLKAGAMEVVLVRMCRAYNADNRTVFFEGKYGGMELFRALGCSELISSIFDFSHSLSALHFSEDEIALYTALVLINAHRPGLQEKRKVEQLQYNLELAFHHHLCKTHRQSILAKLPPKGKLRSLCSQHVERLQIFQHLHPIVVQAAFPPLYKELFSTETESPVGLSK

mouse RORγ = target: T2, mouse RORγ (Mus musculus, UniProt P51450); experiment: Luciferase reporter gene assay of inhibitory effect against RORγ transcriptional activity (GAL4-mRORγ plasmid in CHO cells); type: cell-based
T2 construct: mouse, NM_011281.2 and from Ile251 to Lys516; expressed in transfected cells; host or cells: CHO cells (transient co-transfection with pG5-Luc reporter)
T2 sequence (P51450 251-516): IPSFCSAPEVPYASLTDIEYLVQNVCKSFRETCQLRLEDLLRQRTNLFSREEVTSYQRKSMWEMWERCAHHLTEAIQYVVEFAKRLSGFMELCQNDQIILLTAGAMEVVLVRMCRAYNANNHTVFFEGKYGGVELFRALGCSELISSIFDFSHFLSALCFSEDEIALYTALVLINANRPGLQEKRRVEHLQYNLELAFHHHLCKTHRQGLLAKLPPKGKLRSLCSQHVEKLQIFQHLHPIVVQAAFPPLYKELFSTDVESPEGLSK
In short: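 Readout is intracellular luciferase after 2-day compound exposure (8 concentrations, 0.1% DMSO) in CHO cells expressing GAL4 fused to mouse RORγ LBD residues Ile251–Lys516 plus pG5-Luc reporter. EC50 fitted from %-of-control; points showing resazurin-detected cytotoxicity dropped.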

Row | Compound | EC50 (human RORγ; read-out: LUC EC50 (μM) hRORg) [µM] | EC50 (mouse RORγ; read-out: LUC EC50 (μM) mRORg) [µM] | EC50 (human RORγ; read-out: LUC EC50 hRORg) [µM] | EC50 (mouse RORγ; read-out: LUC EC50 mRORg) [µM]
1 | Cc1c(F)cccc1NC(=O)CCc1nnc(CCC(C)C)n1C1CC1 [Example F-101] | > 3 | > 3 |  | 
2 | CCCc1ccc(C)c(NC(=O)CCc2nnc(CCC(C)C)n2C2CC2)c1 [Example F-153] | > 3 | > 3 |  | 
3 | CCn1c(CCC(=O)NCc2cccc3ccccc23)nnc1C1Cc2ccccc2C1 [Example F-18] | < 3 | < 3 |  | 
4 | Cc1ccc(NC(=O)[C@H]2CCCN(C)[C@@H]2c2nnc(CCC3CCCCC3)n2C2CC2)c(C)c1 [Example F-295] | < 3 | < 3 |  | 
5 | COc1cc(C)ccc1CNC(=O)CCc1nnc(CC[C@H]2CC[C@H](C)CC2)n1C1CC1 [Example F-241] | < 3 | < 3 |  | 
6 | Cc1ccc(NC(=O)CCc2nnc(COC(C)(C)C)n2C2CC2)c(C)c1 [Example F-97] | > 3 | > 3 |  | 
7 | Cc1ccc(NC(=O)[C@H]2CC(=O)N(C)[C@@H]2c2nnc(CCCC(C)(C)C)n2C2CC2)c(C)c1 [Example F-388] | < 3 | < 3 |  | 
8 | Cc1ccc(NC(=O)C[C@H](Cc2nnn[nH]2)c2noc([C@H]3C[C@@H](CC(C)C)C3)c2C2CC2)c(C)c1 [Example F-641] |  |  | < 3 | < 3
9 | CC(=O)N1C[C@H](C(=O)Nc2ccc(C)cc2C)[C@@H](c2nnc(CC3CC(C)(C)C3)n2C2CC2)C1 (racemic) [Example F-347] | < 3 | < 3 |  | 
10 | Cc1ccc(NC(=O)[C@H]2CN(C)C[C@@H]2c2nnc([C@H]3C[C@@H](CC(C)(C)C)C3)n2C2CC2)c(C)c1 [Example F-549] |  |  | < 3 | < 3
11 | CCO[C@@H](CC(=O)Nc1ccc(C)cc1C)c1nnc(-c2cc(CC(C)C)on2)n1C1CC1 [Example F-569] |  |  | < 3 | < 3
12 | Cc1c(NC(=O)CCc2nnc(CCC(C)C)n2C2CC2)ccc(Cl)c1Cl [Example F-165] | > 3 | < 3 |  | 
13 | Cc1cc(Cl)ccc1NC(=O)C[C@H](CCO)c1nnc([C@H]2C[C@@H](CC(C)C)C2)n1C1CC1 [Example F-525] |  |  | < 3 | < 3
14 | Cc1ccc(NC(=O)C[C@H](CCCO)c2noc([C@H]3C[C@@H](CC(C)(C)C)C3)c2C2CC2)c(C)c1O [Example F-699] |  |  | < 3 | < 3
15 | CCn1c(C(C)CC(=O)Nc2cccc3ccccc23)nnc1C1Cc2ccccc2C1 (racemic) [Example F-33] | < 3 | < 3 |  | 
16 | CCn1c(CCC(=O)Nc2cccc3ccccc23)nnc1C1CCCCC1 [Example F-20] | > 3 | > 3 |  | 
17 | CCn1c(CCC(=O)Nc2cccc(Cl)c2Cl)nnc1C1Cc2ccccc2C1 [Example F-30] | > 3 | < 3 |  | 
18 | CCn1c(C(O)CC(=O)Nc2cccc3ccccc23)nnc1C1Cc2ccccc2C1 (racemic) [Example F-34] | > 3 | > 3 |  | 
19 | Cc1ccc(NC(=O)[C@H]2CN(CC(C)C)C[C@@H]2c2nnc([C@H]3C[C@@H](CC(C)C)C3)n2C2CC2)c(C)c1 [Example F-596] |  |  | < 3 | < 3
20 | CC(C)(C[C@H]1C[C@@H](c2onc(C(CCC(=O)O)CC(=O)Nc3ccc(C(=O)O)cc3Cl)c2C2CC2)C1)C(=O)O (some centres unmarked) [Example F-746] |  |  | > 3 | > 3
21 | Cc1ccc(NC(=O)[C@H]2CN(c3nc(C)cs3)C[C@@H]2c2nnc(CCCC(C)(C)C)n2C2CC2)c(C)c1 (racemic) [Example F-448] | < 3 | < 3 |  | 
22 | CC(C)C[C@H]1C[C@@H](c2nnc([C@@H](CCO)CC(=O)Nc3ccc(Cl)cc3F)n2C2CC2)C1 [Example F-519] |  |  | < 3 | < 3

Row | Compound | EC50 (human RORγ; read-out: LUC EC50 (μM) hRORg) [µM] | EC50 (mouse RORγ; read-out: LUC EC50 (μM) mRORg) [µM] | EC50 (human RORγ; read-out: LUC EC50 hRORg) [µM] | EC50 (mouse RORγ; read-out: LUC EC50 mRORg) [µM]
23 | Cc1c(Cl)cccc1NC(=O)CC(CCN)c1nnc(CCCC(C)C)n1C1CC1 (racemic) [Example F-225] | > 3 | > 3 |  | 
24 | Cc1cc(Cl)ccc1NC(=O)CCc1nnc(CCC(C)C)n1C1CC1 [Example F-138] | > 3 | < 3 |  | 
25 | Cc1ccc(NC(=O)[C@H]2CN(S(=O)(=O)C(C)C)C[C@@H]2c2nnc([C@H]3C[C@@H](CC(C)(C)C)C3)n2C2CC2)c(C)c1 [Example F-552] |  |  | < 3 | < 3
26 | Cc1ccc(NC(=O)[C@H]2CN(C(=O)C(F)F)C[C@@H]2c2nnc([C@H]3C[C@@H](CC(C)(C)C)C3)n2C2CC2)c(C)c1 [Example F-551] |  |  | < 3 | < 3
27 | Cc1ccc(NC(=O)CC(CCCN2C(=O)c3ccccc3C2=O)c2nnc(CCCC(C)C)n2C2CC2)c(C)c1 (racemic) [Example F-281] | < 3 | < 3 |  | 
28 | CC(=O)N1CC([C@@H](CC(=O)Nc2ccc(C)cc2C)c2nnc([C@H]3C[C@@H](CC(C)C)C3)n2C2CC2)C1 [Example F-466] | < 3 | < 3 |  | 
29 | CC(C)(C)Cc1cc(-c2onc([C@@H](CCC(=O)O)CC(=O)Nc3ccc(Cl)cc3F)c2C2CC2)no1 [Example E-56] | < 3 | < 3 |  | 
30 | Cc1cc(Cl)ccc1NC(=O)C[C@H](OC(C)C)c1nnc(-c2cc(CC(C)C)on2)n1C1CC1 [Example F-614] |  |  | < 3 | < 3
31 | CC(=O)N1C[C@H](C(=O)Nc2ccc(C)cc2C)[C@@H](c2nnc(-c3ccc(CC(C)C)cc3)n2C2CC2)C1 [Example F-406] | < 3 | < 3 |  | 
32 | Cc1c(F)ccc(NC(=O)C[C@H](OCC(F)(F)F)c2nnc(-c3cc(CC(C)C)on3)n2C2CC2)c1C [Example F-634] |  |  | < 3 | < 3
33 | CCn1c(CCC(=O)Nc2cc(C)cc(C)c2)nnc1C1Cc2ccccc2C1 [Example F-16] | > 3 | < 3 |  | 
34 | COc1cc(C)ccc1CNC(=O)CC(CCO)c1nnc(CCC2CCCCC2)n1C1CC1 (racemic) [Example F-249] | < 3 | < 3 |  | 
35 | Cc1c(F)cccc1NC(=O)C[C@H](CCO)c1nnc([C@H]2C[C@@H](CC(F)(F)F)C2)n1C1CC1 [Example F-589] |  |  | > 3 | > 3
36 | Cc1ccc(NC(=O)CCc2noc(C(O)c3cc(C(C)(C)C)no3)c2C2CC2)c(Cl)c1 (racemic) [Example F-744] |  |  | > 3 | < 3
37 | Cc1ccc(NC(=O)C[C@H](CCC(=O)O)c2noc(-c3cc(C(F)(F)C(C)C)on3)c2C2CC2)c(Cl)c1 [Example E-20] | < 3 | < 3 |  | 
38 | Cc1ccc(CCNC(=O)CCc2nnc(CCC(C)C)n2C2CC2)cc1 [Example F-67] | > 3 | > 3 |  | 
39 | Cc1ccc(NC(=O)C[C@H](CCCO)c2noc([C@H]3C[C@@H](CC(C)(C)C)C3)c2C2CC2)c(C)n1 [Example F-689] |  |  | < 3 | < 3
40 | Cc1c(Cl)cccc1CNC(=O)CCc1nnc(CCC(C)C)n1C1CC1 [Example F-123] | > 3 | > 3 |  | 
41 | COCC(=O)NC[C@@H](CC(=O)Nc1ccc(C)cc1C)c1nnc([C@H]2C[C@@H](CC(C)C)C2)n1C1CC1 [Example F-487] | < 3 | < 3 |  | 
42 | Cc1ccc(NC(=O)[C@H]2CC(N(C)C(C)C)C[C@@H]2c2nnc([C@H]3C[C@@H](CC(C)C)C3)n2C2CC2)c(C)c1 (single isomer, unassigned) [Example F-539] |  |  | > 3 | < 3
43 | COc1cc(C)ccc1CNC(=O)CCc1noc(C23CC4CC(CC(C4)C2)C3)c1C1CC1 [Example F-735] |  |  | < 3 | < 3
